Source: ChEMBL document CHEMBL5724696, “Autophagy assay results for EUbOPEN Chemogenomics Library” (2024)
“And” between values parts separate entries of the source, which are not always exact repeats. Equal entries are not always repeated.

Columns and labels:
U2OS [1] = test: (§1) Here: values are normalized to the positive (DMSO; basel flux = defined as 100% suppression) and negative (250nM Torin1; mTOR inhibitor; maximal inducer of autophagy defined as 0% suppression) control compounds and represented as % of ER-phagy suppression. […] The impact of autophagy induction on cells is complex and depends on the affected target. […] Of note, treatment concentrations may be sub-optimal for specific compounds, leading to false negative annotations.; format: functional, Homo sapiens; details: Compound Concentration 1 uM, Culturing Media DMEM, 1 % Penicillin/Streptomycin, 10% Fetal bovin serum Add-On: blasticidin, Screening Media Control DMEM, 10% Fetal bovin serum Add-On: 1 µg/ml Doxycyclin, Screening Media Samples DMEM
U2OS [2] = test: as §1; format: functional, Homo sapiens; details: Compound Concentration 1 uM, Culturing Media DMEM, 1 % Penicillin/Streptomycin, 10% Fetal bovin serum Add-On: blasticidin, Screening Media Control DMEM, 10% Fetal bovin serum Add-On: 1 µg/ml Doxycyclin, Screening Media Samples DMEM; remark: listed apart in the source
[3] = Timepoint 12 hours, 10% Fetal bovin serum Add-On: 1 µg/ml Doxycyclin 250nM Torin1
[4] = Timepoint 24 hours, 10% Fetal bovin serum Add-On: 1 µg/ml Doxycyclin 250nM Torin1
[5] = Timepoint 36 hours, 10% Fetal bovin serum Add-On: 1 µg/ml Doxycyclin 250nM Torin1
[6] = Timepoint 54 hours, 10% Fetal bovin serum Add-On: 1 µg/ml Doxycyclin 250nM Torin1
[7] = Timepoint 60 hours, 10% Fetal bovin serum Add-On: 1 µg/ml Doxycyclin 250nM Torin1

Row | SMILES | ER-phagy suppression (U2OS [1]; [3]) | ER-phagy suppression (U2OS [1]; [4]) | ER-phagy suppression (U2OS [1]; [5]) | ER-phagy suppression (U2OS [1]; [6]) | ER-phagy suppression (U2OS [2]; [3]) | ER-phagy suppression (U2OS [2]; [4]) | ER-phagy suppression (U2OS [2]; [5]) | ER-phagy suppression (U2OS [2]; [7]) | ER-phagy suppression (U2OS [1]; Timepoint 12 hours, 10% Fetal bovin serum Add-On: 1 µg/ml Doxycyclin 250nM Torin1, 12 h, 1 µM) | ER-phagy suppression (U2OS [1]; Timepoint 24 hours, 10% Fetal bovin serum Add-On: 1 µg/ml Doxycyclin 250nM Torin1, 24 h, 1 µM) | ER-phagy suppression (U2OS [1]; Timepoint 36 hours, 10% Fetal bovin serum Add-On: 1 µg/ml Doxycyclin 250nM Torin1, 36 h, 1 µM) | ER-phagy suppression (U2OS [1]; Timepoint 54 hours, 10% Fetal bovin serum Add-On: 1 µg/ml Doxycyclin 250nM Torin1, 54 h, 1 µM) | ER-phagy suppression (U2OS [2]; Timepoint 60 hours, 10% Fetal bovin serum Add-On: 1 µg/ml Doxycyclin 250nM Torin1, 60 h, 1 µM)
1 | C[C@H](NC(=O)Nc1cc2[nH]ncc2c(CO)n1)c1ccccn1 [ERKi-NC] | 16.3207% | -4.124% | -11.6627% | -9.3851% | -23.4889% | -22.8439% | -26.5362% | -20.3879% |  |  |  |  | 
2 | COc1cc(Nc2ccnc3ccc(Br)cc23)cc(OC)c1OC | 45.26% | 43.6651% | 45.8783% | 55.0501% | 44.6642% | 57.8089% | 50.5911% | 41.5059% |  |  |  |  | 
3 | Cc1ccc(C(=O)Nc2cccc(C(F)(F)F)c2)cc1Nc1nc(-c2cccnc2)nc2c1cnn2C | 20.046% | 2.016% | -6.3% | -2.2204% | 26.4951% | 22.3835% | 22.4378% | 22.9955% |  |  |  |  | 
4 | CN1CCN(Cc2cc(NC(=O)c3ccc4c(c3)CN(c3ccccc3)CC4)cc(C(F)(F)F)c2)CC1 | 8.416% | 6.996% | 11.6775% | 26.4341% | -14.1546% | -18.3974% | -8.125% | -14.9547% |  |  |  |  | 
5 | CN1CCC(COc2cnc(-c3cccc(Cn4nc(-c5cccc(C#N)c5)ccc4=O)c3)nc2)CC1 [TEPOTINIB] | 4.664% | -2.8541% | -6.061% | -17.192% | -9.035% | 9.179% | 17.9604% | 23.3369% |  |  |  |  | 
6 | Cc1cnc(-c2cnc(NCCNc3ccc(C#N)cn3)nc2-c2ccc(Cl)cc2Cl)[nH]1 [LADUVIGLUSIB] | 16.4928% | 17.774% | 23.5271% | 35.0421% | 40.8879% | 29.9628% | 22.9027% | 26.8731% |  |  |  |  | 
7 | NC(=O)c1ccc2[nH]c(-c3ccc(Oc4ccc(Cl)cc4)cc3)nc2c1 | -2.841% | -13.7146% | -23.7031% | -21.3336% | -30.239% | -28.4978% | -29.0961% | -19.7873% |  |  |  |  | 
8 | C[C@@H]1CN(CC(=O)Nc2ccc3c(c2)Cc2cccc(-c4cc(=O)cc(N5CCOCC5)o4)c2S3)C[C@H](C)O1 | 73.6735% | 67.8887% | 67.4998% | 71.8155% | 56.3007% | 45.431% | 40.5334% | 35.1087% |  |  |  |  | 
9 | C[C@@H](NC(=O)Nc1cc2[nH]ncc2c(CO)n1)c1ccccc1 [ERKi] | 6.504% | -3.07% | -4.694% | -0.09872% | -20.6264% | 1.384% | -7.522% | -12.4094% |  |  |  |  | 
10 | CN(C)C(=O)N1CC[C@H](NC2=Nc3cc(F)ccc3N(CC(F)F)c3ccc(Cl)cc32)C1 | -18.0128% | -30.8641% | -36.8246% | -25.6155% | -14.7963% | -22.2791% | -19.1413% | -31.4062% |  |  |  |  | 
11 | C[C@@H](N)[C@H]1CC[C@H](C(=O)Nc2ccncc2)CC1.Cl.Cl | -40.2837% | -57.1688% | -58.7515% | -55.2677% | -1.165% | -12.4028% | 0.04526% | 2.669% |  |  |  |  | 
12 | Cc1cn(-c2cc(NC(=O)c3ccc4c(c3)CN(c3cncnc3)C[C@@H]4C)cc(C(F)(F)F)c2)cn1 | -11.2753% | -32.01% | -29.9662% | -28.2988% | -5.176% | -7.191% | -10.2809% | -23.2702% |  |  |  |  | 
13 | CN(C)C(=O)Cn1cc(-c2ccc(-c3cncc4ccccc34)cc2)cn1 | 5.324% | 37.0971% | 57.9552% | 74.4134% | -8.903% | 10.8163% | 25.7126% | 36.3142% |  |  |  |  | 
14 | Cc1cc(C)c(-n2ccn3nc(-c4cccnc4)cc23)cc1NC(=O)c1cc(C#N)cc(S(F)(F)(F)(F)F)c1 [BAY-826] | 21.4229% | 9.146% | 4.6% | 19.8518% | 10.7254% | 6.3786% | 7.428% | 6.537% |  |  |  |  | 
15 | O=C1Nc2ccc(I)cc2/C1=C/c1cc(Br)c(O)c(Br)c1 | -35.4464% | -41.788% | -41.037% | -30.605% | -13.4504% | -24.7924% | -11.7006% | -13.1814% |  |  |  |  | 
16 | CCc1cncnc1N1CCN(Cc2nc3cc(C(F)(F)F)ccc3[nH]2)CC1 | -12.878% | -26.39% | -24.8445% | -23.0115% | -3.169% | -14.0511% | -20.9455% | -35.5971% |  |  |  |  | 
17 | Cc1ccc(N(C)c2cc(N(C)C3CC3)n3ncc(C#N)c3n2)cc1NC(=O)C1CC1 | 38.742% | 47.4692% | 65.8045% | 75.1314% | 27.2035% | 42.1045% | 58.091% | 60.0735% |  |  |  |  | 
18 | CCN(CCO)CCCOc1ccc2c(Nc3cc(CC(=O)Nc4cccc(F)c4)[nH]n3)ncnc2c1 [DEFOSBARASERTIB] |  |  |  |  |  |  |  |  | -1.417% and 3.579% | -12.3988% and -4.272% | -12.8875% and -11.7769% | -17.4995% and -20.4042% | 14.0476% and -1.761%
19 | C[C@@H]1CN(c2cc(-c3nn(C)c4ccc(OC5(C)CC5)cc34)ncn2)C[C@H](C)O1 [MLi-2-NC] | 6.526% | -15.2571% | -21.814% | -27.1974% | 30.6608% | 32.7197% | 14.6999% | 6.822% |  |  |  |  | 
